Reference: article PMC6760779, “Unraveling the functional role of the orphan solute carrier, SLC22A24 in the transport of steroid conjugates through metabolomic and genome-wide association studies” (PLoS Genetics, 2019)
Structures can show the parent of a compound that is named as a salt. Where two headings read alike, the source gives them in different places. Each block holds one molecule with its values, some of them ahead of it.

Legend:
SLC22A24 = target: T1, SLC22A24 (Homo sapiens, UniProt Q8N4F4); experiment: cell-based
T1 sequence (Q8N4F4 1-552): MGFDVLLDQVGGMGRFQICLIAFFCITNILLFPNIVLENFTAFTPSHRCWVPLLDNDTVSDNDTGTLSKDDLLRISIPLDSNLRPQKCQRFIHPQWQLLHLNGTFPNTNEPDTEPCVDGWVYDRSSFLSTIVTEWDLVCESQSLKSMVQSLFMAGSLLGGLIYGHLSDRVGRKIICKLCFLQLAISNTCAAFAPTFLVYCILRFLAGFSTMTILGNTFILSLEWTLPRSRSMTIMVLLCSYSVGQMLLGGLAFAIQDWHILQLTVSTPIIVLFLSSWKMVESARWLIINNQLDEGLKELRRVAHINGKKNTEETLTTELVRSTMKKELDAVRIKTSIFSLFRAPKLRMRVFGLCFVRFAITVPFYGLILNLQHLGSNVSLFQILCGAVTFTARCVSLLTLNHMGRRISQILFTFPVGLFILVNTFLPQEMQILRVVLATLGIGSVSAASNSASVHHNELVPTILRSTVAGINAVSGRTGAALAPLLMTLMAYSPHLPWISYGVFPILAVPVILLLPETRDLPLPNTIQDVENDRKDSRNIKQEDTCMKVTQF

[1] = substrate: C[C@]12CC[C@@H]3c4ccc(OS(=O)(=O)O)cc4CC[C@H]3[C@@H]1CCC2=O; experiment: cells, lysate or membranes
[2] = substrate: C[C@]12CC[C@@H]3c4ccc(O)cc4CC[C@H]3[C@@H]1CC[C@@H]2O[C@@H]1O[C@H](C(=O)O)[C@@H](O)[C@H](O)[C@H]1O; experiment: cells, lysate or membranes; type: cell-based, Homo sapiens
[3] = substrate: C[C@H](CCC(=O)NCC(=O)O)[C@H]1CC[C@H]2[C@@H]3[C@H](O)C[C@@H]4C[C@H](O)CC[C@]4(C)[C@H]3C[C@H](O)[C@]12C; experiment: cells, lysate or membranes; type: cell-based, Homo sapiens

Molecule: CC(=O)[C@H]1CC[C@H]2[C@@H]3CC=C4C[C@@H](OS(=O)(=O)O)CC[C@]4(C)[C@H]3CC[C@]12C [Pregnenolone sulfate]
- IC50 (SLC22A24): 1.4 ± 0.1 µM

Molecule: C[C@H](CCC(=O)O)[C@H]1CC[C@H]2[C@@H]3[C@H](O)C[C@@H]4C[C@H](O)CC[C@]4(C)[C@H]3CC[C@]12C [Chenodeoxycholic acid]
- IC50 (SLC22A24; read-out: IC50 [μM ± SD]): 2.6 ± 1 µM

Molecule: O=C(O)CSc1nnc(Br)n1-c1ccc(C2CC2)c2ccccc12 [Lesinurad]
- IC50 (SLC22A24; read-out: IC50 [μM ± SD]): 13 ± 6.1 µM

Molecule: CC(=O)[C@H]1CC[C@H]2[C@@H]3CCC4=CC(=O)CC[C@]4(C)[C@H]3CC[C@]12C [Progesterone]
- IC50 (SLC22A24): 7.4 ± 3 µM

B1: SLC22A24 (Homo sapiens) (protein)
chain: T1 sequence (Q8N4F4 1-552)
- Km [1]: 8.6 ± 0.3 µM
- Km [2]: 17.5 ± 0.2 µM
- Km [3]: 33.4 ± 2.5 µM

Second part, the molecule after the results:

- IC50 (SLC22A24; read-out: IC50 [μM ± SD]): 3.3 ± 1.4 µM
Molecule: CN(CCOc1ccc(CC2SC(=O)NC2=O)cc1)c1ccccn1 (stereo not drawn) [Rosiglitazone]

- IC50 (SLC22A24; read-out: IC50 [μM ± SD]): 7.6 ± 1.2 µM
Molecule: C[C@H](CCC(=O)O)[C@H]1CC[C@H]2[C@@H]3[C@@H](O)C[C@@H]4C[C@H](O)CC[C@]4(C)[C@H]3CC[C@]12C [Ursodeoxycholic acid]
